This note sets out measurements from patent publication US8431702B2, “Therapeutically useful substituted hydropyrido [3,2,1-ij] quinoline compounds” (Allergan, Inc., priority 2008, dated 2013).

As a reminder, the IC50 is the concentration that inhibits the measured activity by half.

The test addresses T1, human S1P3 receptor (Homo sapiens, UniProt Q99500).
T1 construct: expressed in transfected cells
As to the kind of experiment: FLIPR calcium (Fluo-4) assay for activation or block of activation of human S1P3 receptor in T24 cells. Type of test: cell-based. The protocol:
The compounds of the invention are assessed for their ability to activate or block activation of the human S1P3 receptor in T24 cells stably expressing the human S1P3 receptor using the method described in paragraph [0067] of United States Patent Application Publication No. 20070232682, which published on Oct. 4, 2007, which is hereby incorporated by reference in its entirety.
Ten thousands cells/well are plated into 384-well poly-D-lysine coated plates one day prior to use. The growth media for the S1P3 receptor expressing cell line is McCoy's 5A medium supplemented with 10% charcoal-treated fetal bovine serum (FBS), 1% antibiotic-antimycotic and 400 μg/ml geneticin. On the day of the experiment, the cells are washed twice with Hank's Balanced Salt Solution supplemented with 20 mM HEPES (HBSS/Hepes buffer). The cells are then dye loaded with 2 μM Fluo-4 diluted in the HBSS/Hepes buffer with 1.25 mM Probenecid and incubated at 37° C. for 40 minutes. Extracellular dye is removed by washing the cell plates four times prior to placing the plates in the FLIPR (Fluorometric Imaging Plate Reader, Molecular Devices). Ligands are diluted in HBSS/Hepes buffer and prepared in 384-well microplates. The positive control, Sphingosine-1-phosphate (S1P), is diluted in HBSS/Hepes buffer with 4 mg/ml fatty acid free bovine serum albumin. The FLIPR transfers 12.5 μl from the ligand microplate to the cell plate and takes fluorescent measurements for 75 seconds, taking readings every second, and then for 2.5 minutes, taking readings every 10 seconds. Compounds are tested over the concentration range of 0.61 nM to 10,000 nM. Data for calcium ion (Ca^+2) responses are obtained in arbitrary fluorescence units and not translated into Ca^+2 concentrations. IC50 values (nM) are determined through a […] analysis using the Levenburg Marquardt algorithm.

Setting [1] is: T24 cells stably expressing the human S1P3 receptor, tested over 0.61 nM to 10,000 nM.
Where [2] appears, read: T24 cells stably expressing the human S1P3 receptor, tested over 0.61 nM to 10,000 nM, read-out: S1P3 IC50.

Where two headings read alike, the source gives them in different places.

T1 sequence (Q99500 whole entry): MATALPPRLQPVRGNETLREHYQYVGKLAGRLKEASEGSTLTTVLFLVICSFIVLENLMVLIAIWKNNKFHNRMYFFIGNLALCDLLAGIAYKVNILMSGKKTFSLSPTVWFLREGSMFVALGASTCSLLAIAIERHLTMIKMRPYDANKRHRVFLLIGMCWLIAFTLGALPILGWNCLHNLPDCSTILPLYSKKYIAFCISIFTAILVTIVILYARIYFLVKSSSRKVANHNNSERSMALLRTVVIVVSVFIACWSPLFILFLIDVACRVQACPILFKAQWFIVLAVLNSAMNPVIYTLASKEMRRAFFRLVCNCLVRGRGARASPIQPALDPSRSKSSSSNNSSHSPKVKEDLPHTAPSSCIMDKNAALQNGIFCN

For the compound `CNC(=O)c1cc2c3c(c1)C(c1ccccc1)CCN3CCC2c1ccccc1` (stereo not drawn) [Compound 775, N-methyl-1,7-diphenyl-1,2,3,5,6,7-hexahydropyrido[3,2,1-ij]quinoline-9-carboxamide], the “S1P3 % Inhibition” value under setting [1] is recorded as 100%. Moreover, the IC50 under setting [2] turned out to be 619 nM.
Consider `CCCCCCNC(=S)Nc1cc2c3c(c1)C(c1ccccc1)CCN3CCC2c1ccccc1` (stereo not drawn) [Compound 256, 1-(1,7-diphenyl-1,2,3,5,6,7-hexahydropyrido[3,2,1-ij]quinolin-9-yl)-3-hexylthiourea], for which the “S1P3 % Inhibition” value under setting [1] is 100%.
As for `O=C(Nc1cc2c3c(c1)C(c1ccccc1)CCN3CCC2c1ccccc1)Oc1ccccc1` (stereo not drawn) [Compound 277, Phenyl 1,7-diphenyl-1,2,3,5,6,7-hexahydropyrido[3,2,1-ij]quinolin-9-ylcarbamate], under setting [1], the “S1P3 % Inhibition” value is on record as 91%.
Regarding `CSC(=O)Nc1cc2c3c(c1)[C@@](C)(c1ccccc1)CCN3CC[C@@]2(C)c1ccccc1` [Compound 582, S-methyl (1R,7S)-1,7-dimethyl-1,7-diphenyl-1,2,3,5,6,7-hexahydropyrido[3,2,1-ij]quinolin-9-ylcarbamothioate], the IC50 is 4 nM. Also, the “S1P3 % Inhibition” value under setting [1] is given as 99%.
With `CCCCNC(=O)Nc1cc2c3c(c1)C(c1ccccc1)CCN3CCC2c1ccccc1` (stereo not drawn) [Compound 485, 1-Butyl-3-(1,7-diphenyl-1,2,3,5,6,7-hexahydropyrido[3,2,1-ij]quinolin-9-yl)urea], under setting [1], the “S1P3 % Inhibition” value was 100%.
For `CCNC(=O)Nc1cc2c3c(c1)[C@](C)(c1ccccc1)CCN3CC[C@@]2(C)c1ccccc1` [Compound 249, 1-((1S,7S)-1,7-dimethyl-1,7-diphenyl-1,2,3,5,6,7-hexahydropyrido[3,2,1-ij]quinolin-9-yl)-3-ethylurea], the “S1P3 % Inhibition” value under setting [1] came to 100%. In addition, the 50% inhibitory concentration (IC50) under setting [2] stood at 194 nM.
On to `CCCSC(=O)Nc1cc2c3c(c1)[C@](C)(c1ccc(F)cc1)CCN3CC[C@@]2(C)c1ccc(F)cc1` [Compound 673, S-propyl (1S,7S)-1,7-bis(4-fluorophenyl)-1,7-dimethyl-1,2,3,5,6,7-hexahydropyrido[3,2,1-ij]quinolin-9-ylcarbamothioate], for which the half-maximal inhibitory concentration (IC50) was 62 nM. In addition, the “S1P3 % Inhibition” value under setting [1] is on record as 97%.
With `CCCNC(=O)Nc1cc2c3c(c1)[C@](C)(c1ccccc1)CCN3CC[C@@]2(C)c1ccccc1` [Compound 250, 1-((1S,7S)-1,7-dimethyl-1,7-diphenyl-1,2,3,5,6,7-hexahydropyrido[3,2,1-ij]quinolin-9-yl)-3-propylurea], the “S1P3 % Inhibition” value under setting [1] is on record as 100%. Moreover, the IC50 under setting [2] was 523 nM.
On to `COC(=O)Nc1cc2c3c(c1)C(c1ccc(F)cc1)CCN3CCC2c1ccc(F)cc1` (stereo not drawn) [Compound 268], for which, under setting [1], the “S1P3 % Inhibition” value worked out at 98%. The IC50 under setting [2] worked out at 5 nM.
Turning to `COC(=O)Nc1cc2c3c(c1)[C@](C)(c1ccc(F)cc1)CCN3CC[C@@]2(C)c1ccc(F)cc1` [Compound 674, methyl (1S,7S)-1,7-bis(4-fluorophenyl)-1,7-dimethyl-1,2,3,5,6,7-hexahydropyrido[3,2,1-ij]quinolin-9-ylcarbamate], the IC50 stood at 46 nM. The “S1P3 % Inhibition” value under setting [1] is on record as 96%.
With `CCOC(=O)Nc1cc2c3c(c1)C(c1ccccc1)CCN3CCC2c1ccccc1` (stereo not drawn) [Compound 273, Ethyl 1,7-diphenyl-1,2,3,5,6,7-hexahydropyrido[3,2,1-ij]quinolin-9-ylcarbamate], the “S1P3 % Inhibition” value under setting [1] is 101%.
Take `CCOC(=O)Nc1cc2c3c(c1)C(c1cccc(F)c1)CCN3CCC2c1cccc(F)c1` (stereo not drawn) [Compound 093, Ethyl 1,7-bis(3-fluorophenyl)-1,2,3,5,6,7-hexahydropyrido[3,2,1-ij]quinolin-9-ylcarbamate]: under setting [1], the “S1P3 % Inhibition” value is listed as 102%.
As to `CCCOC(=O)Nc1cc2c3c(c1)[C@](C)(c1ccccc1)CCN3CC[C@@]2(C)c1ccccc1` [Compound 942, Propyl (1S,7S)-1,7-dimethyl-1,7-diphenyl-1,2,3,5,6,7-hexahydropyrido[3,2,1-ij]quinolin-9-ylcarbamate], the IC50 came out at 72 nM. Under setting [1], the “S1P3 % Inhibition” value is 100%.
Turning to `O=C(Nc1cc2c3c(c1)C(c1ccccc1)CCN3CCC2c1ccccc1)OCCCCCl` (stereo not drawn) [Compound 206, 4-chlorobutyl 1,7-diphenyl-1,2,3,5,6,7-hexahydropyrido[3,2,1-ij]quinolin-9-ylcarbamate], the “S1P3 % Inhibition” value under setting [1] is 100%.
For `CCCCCNC(=O)Nc1cc2c3c(c1)C(c1ccccc1)CCN3CCC2c1ccccc1` (stereo not drawn) [Compound 486, 1-(1,7-diphenyl-1,2,3,5,6,7-hexahydropyrido[3,2,1-ij]quinolin-9-yl)-3-pentylurea], the “S1P3 % Inhibition” value under setting [1] stood at 100%. For the same compound, the IC50 under setting [2] is 82 nM.
Turning to `O=C(Nc1cc2c3c(c1)C(c1ccccc1)CCN3CCC2c1ccccc1)OCCCCl` (stereo not drawn) [Compound 205, 3-chloropropyl 1,7-diphenyl-1,2,3,5,6,7-hexahydropyrido[3,2,1-ij]quinolin-9-ylcarbamate], the “S1P3 % Inhibition” value under setting [1] is reported as 99%.
As for `C[C@@]1(c2ccccc2)CCN2CC[C@@](C)(c3ccccc3)c3cc(NC(=O)OCCCCl)cc1c32` [Compound 945, 3-chloropropyl (1S,7S)-1,7-dimethyl-1,7-diphenyl-1,2,3,5,6,7-hexahydropyrido[3,2,1-ij]quinolin-9-ylcarbamate], the half-inhibitory concentration (IC50) amounted to 68 nM. Under setting [1], the “S1P3 % Inhibition” value came to 100%.
With `CCCSC(=O)Nc1cc2c3c(c1)C(c1ccccc1)CCN3CCC2c1ccccc1` (stereo not drawn) [Compound 700], the “S1P3 % Inhibition” value under setting [1] came out at 100%. For the same compound, under setting [2], the IC50 was 7 nM.
Turning to `O=C(NCCCl)Nc1cc2c3c(c1)C(c1ccccc1)CCN3CCC2c1ccccc1` (stereo not drawn) [Compound 769, 1-(2-chloroethyl)-3-(1,7-diphenyl-1,2,3,5,6,7-hexahydropyrido[3,2,1-ij]quinolin-9-yl)urea], under setting [1], the “S1P3 % Inhibition” value is 100%.
Turning to `CCCOC(=O)Nc1cc2c3c(c1)C(c1cccc(F)c1)CCN3CCC2c1cccc(F)c1` (stereo not drawn) [Compound 094, Propyl 1,7-bis(3-fluorophenyl)-1,2,3,5,6,7-hexahydropyrido[3,2,1-ij]quinolin-9-ylcarbamate], the “S1P3 % Inhibition” value under setting [1] was determined as 101%.
In the case of `CCCSC(=O)Nc1cc2c3c(c1)[C@](C)(c1ccccc1)CCN3CC[C@@]2(C)c1ccccc1` [Compound 585, S-propyl (1S,7S)-1,7-dimethyl-1,7-diphenyl-1,2,3,5,6,7-hexahydropyrido[3,2,1-ij]quinolin-9-ylcarbamothioate], the IC50 amounted to 5 nM. For the same compound, the “S1P3 % Inhibition” value under setting [1] turned out to be 98%.
Consider `CCCCCCNC(=O)Nc1cc2c3c(c1)C(c1ccccc1)CCN3CCC2c1ccccc1` (stereo not drawn) [Compound 487, 1-(1,7-diphenyl-1,2,3,5,6,7-hexahydropyrido[3,2,1-ij]quinolin-9-yl)-3-hexylurea], for which the “S1P3 % Inhibition” value under setting [1] was 100%.
As for `COC(=O)Nc1cc2c3c(c1)C(c1cccc(F)c1)CCN3CCC2c1cccc(F)c1` (stereo not drawn) [Compound 779, Methyl 1,7-bis(3-fluorophenyl)-1,2,3,5,6,7-hexahydropyrido[3,2,1-ij]quinolin-9-ylcarbamate], under setting [1], the “S1P3 % Inhibition” value amounted to 101%.
Turning to `CCCNC(=O)c1cc2c3c(c1)C(c1ccccc1)CCN3CCC2c1ccccc1` (stereo not drawn) [Compound 409, 1,7-diphenyl-N-propyl-1,2,3,5,6,7-hexahydropyrido[3,2,1-ij]quinoline-9-carboxamide], the “S1P3 % Inhibition” value under setting [1] worked out at 89%. Moreover, the IC50 under setting [2] turned out to be 874 nM.
On to `CCCOC(=O)Nc1cc2c3c(c1)[C@@](C)(c1ccccc1)CCN3CC[C@@]2(C)c1ccccc1` [Compound 355, Propyl (1R,7S)-1,7-dimethyl-1,7-diphenyl-1,2,3,5,6,7-hexahydropyrido[3,2,1-ij]quinolin-9-ylcarbamate], for which the “S1P3 % Inhibition” value under setting [1] is reported as 98%. The IC50 under setting [2] came out at 316 nM.
In the case of `CSC(=O)Nc1cc2c3c(c1)[C@](C)(c1ccc(F)cc1)CCN3CC[C@@]2(C)c1ccc(F)cc1` [Compound 671, S-methyl (1S,7S)-1,7-bis(4-fluorophenyl)-1,7-dimethyl-1,2,3,5,6,7-hexahydropyrido[3,2,1-ij]quinolin-9-ylcarbamothioate], the IC50 came out at 25 nM. For the same compound, the “S1P3 % Inhibition” value under setting [1] came to 97%.
As for `CC(C)(C)NC(=O)Nc1cc2c3c(c1)[C@](C)(c1ccccc1)CCN3CC[C@@]2(C)c1ccccc1` [Compound 581, 1-t-butyl-3-((1S,7S)-1,7-dimethyl-1,7-diphenyl-1,2,3,5,6,7-hexahydropyrido[3,2,1-ij]quinolin-9-yl)urea], the “S1P3 % Inhibition” value under setting [1] is 98%. Besides, the IC50 under setting [2] amounted to 349 nM.
`O=C(Nc1cc2c3c(c1)C(c1ccccc1)CCN3CCC2c1ccccc1)N1CCOCC1` (stereo not drawn) [Compound 983, N-(1,7-diphenyl-1,2,3,5,6,7-hexahydropyrido[3,2,1-ij]quinolin-9-yl)morpholine-4-carboxamide]: the “S1P3 % Inhibition” value under setting [1] was 100%.
With `CCCNC(=S)Nc1cc2c3c(c1)C(c1ccccc1)CCN3CCC2c1ccccc1` (stereo not drawn) [Compound 255, 1-(1,7-diphenyl-1,2,3,5,6,7-hexahydropyrido[3,2,1-ij]quinolin-9-yl)-3-propylthiourea], the “S1P3 % Inhibition” value under setting [1] was found to be 99%.
